Test results: US7538193B2, “NO-modified hemoglobins and uses therefor” (Duke University, priority 1995, dated 2009)

Experiments:
rat red blood cells = assay: S-nitrosation of intraerythrocytic Hb on incubation of red blood cells with RSNOs; format: cell-based; conditions: oxygenated rat red blood cells
Method: Incubation of rat erythrocytes with S-nitrosocysteine (equimolar to heme (5 mM); phosphate buffer pH 7.4, 25° C.) leads to rapid formation of intracellular SNO-Hb(FeII)O2. […] By 60 min, 3 of the 4 available SH groups of Hb were S-nitrosated (note that rat Hb contains 4 reactive SH groups). […] Spectrum A is that of SNO-Hb isolated from erythrocytes following G-25 chromatography. Treatment of A with dithionite results in reduction of the S—NO moiety, liberating free NO which is autocaptured by deoxy Hb, forming Hb(FeII)NO (note that dithionite simultaneously deoxygenates Hb) (spectrum C). […] The spectrum of Hb(FeII)NO containing 4 NO's per tetramer is shown for comparison (inset, spectrum B).
At shown intervals, red blood cells were pelleted rapidly by centrifugation, washed three times, lysed in deionized water at 4° C., and the cytosolic fraction subjected to rapid desalting across G-25 columns. Intracellular SNO-Hb was measured by the method of Saville (Gaston, B., et al., (1992); Stamler, J. S., et al., Proc. Natl. Acad. Sci. USA, 89:444-448 (1992)), and confirmed spectroscopically (inset of FIG. 3A) as described above.

[1] = system: substantia nigra, caudate putamen nucleus and parietal cortex of Sprague-Dawley rats; assay: O2-dependent local cerebral blood flow in rats (Example 25); format: in vivo, rat; conditions: 1 μmol/kg infused over 3 minutes
Method: Adult male Sprague-Dawley rats (290-350 g) were anesthetized with sodium pentobarbital (50 mg/kg IP), intubated and ventilated with a small animal respirator (Edco Scientific Inc., Chapel Hill, N.C.) at a rate and tidal volume to maintain normal values of PaCO2 (35-45 mm Hg; PaCO2=systemic arterial blood carbon dioxide tension). The femoral vein and artery were cannulated for infusion of drugs and for continuous monitoring of systemic blood pressure, respectively. Aliquots of arterial blood (200 μl) were drawn periodically to measure blood gas tensions and pH (Instrumentation Laboratory Co., model 1304 blood gas/pH analyzer). The blood was replaced intravenously with three volumes of normal saline. The inspired O2 concentration was varied using premixed gases balanced with nitrogen. The tissue PO2 was measured continuously with polarographic platinum microelectrodes (50 μm O.D. coated with hydrophobic gas permeable Nafion) implanted stereotaxically in both the right and left hippocampus (AP-3.4 mm, ML+2.2 mm), caudate putamen nucleus and substantia nigra (see coordinates below) (Young, W., Stroke, 11:552-564 (1980); Heiss, W. D. and Traupett, H., Stroke, 12:161-167 (1981); Dewhirst, M. W. et al., Cancer Res., 54:3333-3336 (1994); Kerger, H. et al., Am. J. Physiol., 268:H802-H810 (1995)). The PO2 electrodes were polarized to −0.65V against a distant Ag/AgCl reference located on the tail and the current flow was measured using a low-impedance nA-meter. Regional arterial PO2 was adjusted by changing the inspired O2 concentration and atmospheric pressure.
Polarographic hydrogen (H2)-sensitive microelectrodes were implanted stereotaxically in the substantia nigra (AP −5.3 mm, ML −2.4 mm to the bregma, depth 3.2 mm), caudate putamen nucleus (CPN) (AP +0.8 mm, ML −2.5 mm, depth 5.2 mm) and parietal cortex, for measurement of regional blood flow (Young, W., Stroke, 11:552-564 (1980); Heiss, W. D. and Traupett, H., Stroke, 12:161-167 (1981)). The microelectrodes were made from platinum wire and insulated with epoxy, with the exception of the tip (1 mm) which was coated with Nafion. For placement, the electrodes were mounted on a micromanipulator and the rat's head was immobilized in a Kopf stereotaxic frame. H2-sensitive electrodes were polarized to +400 mV against a distant reference electrode on the tail, and the polarographic current was measured using a low-impedance nA meter during and after the inhalation of hydrogen gas (2.5%) for 1 min. Both the hydrogen clearance curves and voltage for oxygen measurements were made using PC WINDAQ (software, DI-200 AC, Dataq Instruments, Inc., Akron, Ohio). Cerebral blood flow was calculated using the initial slope method (Young, W., Stroke, 11:552-564 (1980); Heiss, W. D. and Traupett, H., Stroke, 12:161-167 (1981)). Regional blood flow responses were monitored for 30 min. prior to and 30 min. following drug administration; hemoglobins were given at time 0.
The cerebrovascular effects of SNO-Hb were measured in adult male Sprague-Dawley rats using O2 and H2 (blood flow)-sensitive microelectrodes that were placed stereotaxically in several regions of the brain as for Example 24.

[2] = system: rabbit thoracic aortic rings, endothelium removed; assay: Oxygen-dependent vessel ring bioassay (Examples 22, 23); format: cell-based
[3] = system: rat brain (caudatoputamen nucleus); assay: Brain blood flow in rats by H2 clearance (Example 12); format: in vivo; conditions: rats breathing 21% O2; 100 or 1000 nmol/kg
Method: SNO-Hb(FeII)O2, having a SNO/Hb ratio of 2, was prepared (from HbA0) by reaction with S-nitrosothiol. Rats breathing 21% O2 were injected (time 0) with Hbs prepared from HbA0 as indicated in FIG. 10 (open circles, SNO-Hb (100 nmol/kg); filled circles, SNO-Hb (1000 nmol/kg); filled squares, unmodified Hb (1000 nmol/kg)). Three rats were used per experiment. Blood flow was measured in brain using the H2 clearance method; microelectrodes were placed in the brain stereotactically. […] NO group release is promoted by local tissue hypoxia.

rabbit aortic ring = assay: Vessel ring bioassay of SNO-Hb preparations (Examples 4, 13); format: cell-based; conditions: for vasoactivity in vascular ring bioassay: no added thiol (FIG. 4A)
Method: Details of the vessel ring bioassay have been published (Stamler, J. S., et al., Proc. Natl. Acad. Sci. USA 89:444-448 (1992)). SNO-Hb(FeII)O2 preparations were synthesized with 10-fold excess S-nitrosocysteine (CYSNO) over Hb(FeII)O2 protein (2% borate, 0.5 mM EDTA, ˜15 min incubation), after which desalting was performed across Sephadex G-25 columns. CYSNO was synthesized in 0.5 N HCl, 0.5 mM EDTA and then neutralized (1:1) in 1 M phosphate buffer containing 0.5 mM EDTA. […] The latter was synthesized by treatment of Hb(FeII)O2 with excess ferricyanide, followed by desalting across G-25 columns. SNO-Hb concentrations were verified spectroscopically and the S-nitrosothiol content was determined by the method of Saville (Stamler, J. S., et al., Proc. Natl. Acad. Sci USA 89:444-448 (1992)). The S—NO/tetramer stoichiometry for both SNO-Hb preparations was ˜2. Oxidation of the heme was undetectable by uv-spectrophotometric methods.
The aortic ring bioassay was performed as described in Example 4. The product of the reaction in which a ratio of 100:1 CYSNO/Hb tetramer was used, contains 2 SNOs as well as NO attached to the heme.

Sprague-Dawley rat = assay: Mean arterial blood pressure in anesthetized rats after femoral vein bolus (Examples 5, 6); format: in vivo; conditions: 2-200 nmol/kg bolus
Description: Rats were anesthetized by intraperitoneal injection of pentobarbital and the femoral arteries and veins accessed by local cut down. The artery was then cannulated and the blood pressure monitored continuously using a Viggo Spectramed pressure transducer attached to a Gould recorder. An IBM PC (DATA Q Codas) was used for data acquisition.

[4] = Decomposition and stability of SNO-Hb forms; format: physicochemical
Method: Hbs in PBS (0.5 mM EDTA, pH 7.4) were incubated in air (oxy) or in a tonometer previously evacuated of O2 (deoxy). SNO-Hb(FeII)O2 decomposition was determined by the method of Saville (Saville, B., Analyst 83:670-672 (1958)). Spontaneous decomposition of SNO-Hb(FeII) was followed spectrophotometrically by formation of Hb(FeII)NO. Transnitrosation reactions with glutathione were performed by addition of 100-fold excess glutathione over protein (50 μM), immediate processing of the reaction mixture under anaerobic conditions followed by rapid TCA precipitation, and analysis of RSNO in the supernatant. Rates of NO group transfer were too rapid to measure accurately by the standard methods used in this study.

## N[C@@H](CSN=O)C(=O)O [S-nitrosocysteine]
Rat red blood cells
  formation of intraerythrocytic SNO-Hb on treatment of red blood cells: very rapid formation of intracellular SNO-Hb(FeII)O2

## SNO-Hb: S-nitrosohemoglobin, hemoglobin S-nitrosylated at thiol groups (cysβ93)
[1]; 21% O2
  local cerebral blood flow: improved blood flow in all three regions of the brain tested
[1]; 100% O2 + 3 ATA
  local cerebral blood flow: tended to decrease cerebral flow to similar extents
[1]; 100% O2
  local cerebral blood flow: significantly attenuated
[2]; 1 μM, rings contracted with phenylephrine under hypoxic conditions (6-7 torr)
  effect on vessel tone: relaxations
[2]; 10 μM glutathione in bioassay chambers
  effect of 10 μM glutathione on the response: potentiates the vasorelaxant response
[2]; 95% O2 or 21% O2 (R-structure)
  effect on vessel tension: contract blood vessels
[2]; <1% O2 (~6 torr), T-structure
  effect on vessel tension: does not
[3]
  blood flow to the brain: improves blood flow to the brain

## [N]=O [NO, nitric oxide, reference compound]
Rabbit aortic ring; in the presence of Hb(FeII)O2 or Hb(FeIII)
  relaxant activity of free NO: devoid of relaxant activity

## N[C@@H](CCC(=O)N[C@@H](CSN=O)C(=O)NCC(=O)O)C(=O)O [GSNO, S-nitrosoglutathione]
[1]; 100% O2 + 3 ATA
  local cerebral blood flow: increased brain perfusion
[1]; 100% O2
  local cerebral blood flow: increased brain perfusion
Rat red blood cells
  formation of intraerythrocytic SNO-Hb on treatment of red blood cells: not
[2]; 95%, 21%, <1% O2 (FIG. 20D)
  vasorelaxant effects, dependence on PO2: largely independent of PO2

## N[C@@H](CCSN=O)C(=O)O [S-nitrosohomocysteine]
Rat red blood cells
  formation of intraerythrocytic SNO-Hb on treatment of red blood cells: formed

## Hb(FeII)O2: oxyhemoglobin, cell-free, not S-nitrosated [reference compound]
Sprague-Dawley rat
  time for elevations in blood pressure to reverse: 10 to 15 min
Rabbit aortic ring; glutathione 100 ∥M in bioassay chambers (FIG. 4B)
  effect of added glutathione on the dose-response: did not significantly influence the response
Rabbit aortic ring
  vasoactivity in vascular ring bioassay: Contractile effects

## 100:1 CYSNO/Hb product: Hb treated with 100:1 S-nitrosocysteine; contains 2 SNOs as well as NO attached to the heme (polynitrosated)
Rabbit aortic ring; Hb treated with S-nitrosocysteine 100:1 (FIG. 11)
  potency in aortic ring bioassay: much greater than that of SNO-Hb(FeIII)

## Hb(FeIII): methemoglobin, heme iron oxidized to FeIII [reference compound]
Rabbit aortic ring
  vasoactivity in vascular ring bioassay: contractile properties

## deoxyHb: deoxyhemoglobin, not S-nitrosated
[2]; <1% O2 (~6 torr), T-structure
  effect on vessel tension: powerful contractile agent

## N[C@@H](CSN=O)C(=O)NCC(=O)O [S-nitrosocysteinylglycine]
Rat red blood cells
  formation of intraerythrocytic SNO-Hb on treatment of red blood cells: formed

## SNO-deoxyHb: S-nitroso-deoxyhemoglobin synthesized in an anaerobic environment
[4]; as synthesized in Example 27
  stability of the isolated preparation: highly unstable
[4]; deoxy conformation versus oxy state, PBS pH 7.4
  rates of RSNO decomposition (and transfer): much faster
[2]; <1% O2 (~6 torr), T-structure
  effect on vessel tension: modest effect on baseline tone
